Test results as given in patent US7598028B2, “Compositions and methods for detecting and treating prostate disorders” (The Regents of the University of Michigan, priority 2006, dated 2009).

Experiments:
Assay type in all cases: cell-based, human
[1] = test system: N15C6 cells; experiment: Migratory/invasive response to CXCL5, N15C6 (contemplated); details: 2 hours pre-treatment: 100 nM wortmannin, 20 uM LY294002a or 10 mM tyrphostin A9
Method: (§1) PC3 cells invaded through Matrigel in response to both CXCL5 and CXCL12. In experiments conducted during the development of embodiments for the present invention, the effect for CXCL12 was abrogated when the cells were pre-treated with antibody against the CXCR4 receptor but not when the cells were treated with the IgG isotype control. […] It is contemplated that PI3K-mediated FAK activation is involved in CXCL5-stimulated epithelial cell migration. Protein purified from cells exposed to CXCL5 using Western blot analysis and antibodies to FAK, Crk, p130Cas, and the phospho-forms of these proteins will be examined. It is contemplated that PI3K signaling involvement in the migratory/invasive response to cytokine stimulation by CXCL5 occurs through, for example, phosphorylation of FAK, Crk and p130Cas. It is contemplated that inhibition of downstream PI3K signaling abrogates the migratory/invasive response of CXCL5. For example, it is contemplated that N15C6 or LNCaP cells pre-treated with PI3K inhibitors (e.g., 100 nM wortmannin or 20 uM LY294002a) or 10 mM of the RAFTK/Pyk2 inhibitor tyrphostin A9 for 2 hours, then exposed to CXCL5 previously shown to stimulate the migratory/invasive response, for 2 hours, abroagates the migratory/invasive response of CXCL5.

[2] = test system: LNCaP cells; experiment: Migratory/invasive response to CXCL5, LNCaP (contemplated); details: 2 hours pre-treatment: 100 nM wortmannin, 20 uM LY294002a or 10 mM tyrphostin A9
Method: as §1

[3] = test system: N15C6 prostate epithelial cells; experiment: Proliferation assay (cell counts), N15C6; details: add back of exogenous chemokine, 96 hours
Method: (§2) Proliferation assays. Cellular proliferation was assessed after plating cells at 50 000 cell/well in triplicate in six-well plates and counting cells after 24 and 96 h of incubation in complete media, serum-free media or serum-free prostate stromal fibroblast conditioned media, as described previously (Macoska J A, et al., (2004) Cancer Genet. Cytogenet. 154, 36-43; incorporated herein by reference in its entirety). Averages and standard deviations of cell number were calculated for each time point under each media condition. To assess the effects of exogenous CXCL12 on cellular proliferation, recombinant human SDF1 alpha/CXCL12 (R & D Systems, 350-NS) was added at the desired concentration in 1 mL SF HIE (or 1 mL SF HIE alone for control) to each well. The cells were counted at 24 and 96 h growth and re-fed at 48 and 72 h growth. Cell counts were normalized to 50 000 cells at 24 h to account for any plating discrepancies.
(§3) Proliferation Assays. Cellular proliferation was assessed after plating cells at 50,000 cell/well in triplicate in six well plates and counting cells after 24 and 96 hours of incubation as described previously (see, e.g., Macoska J A, et al., 2004 Cancer Genet. Cytogenet. 154, 36-43; incorporated herein by reference in its entirety). To assess the effects of exogenous CXCL12 on cellular proliferation, recombinant human SDF1 alpha/CXCL12 (R&D Systems, 350-NS) was added at the desired concentration in 1 ml SF HIE (or 1 ml SF HIE alone for control) to each well. The cells were re-fed at 48 and 72 hours growth and counted at 24 and 96 hours growth. Cell counts were normalized to 50,000 cells at 24 hours to account for any plating discrepancies. Averages and standard deviations of cell number were calculated for each time point under each media condition. Experiments utilizing U0126 were performed as above, except that cells were treated after plating for 2 hours with either DMSO (vehicle) or 5 uM U0126 before addition of CXCL12. Cells were maintained in media containing DMSO or U0126 for the entirety of the experiment. For the antibody blockade experiments, cells were plated at 10,000 cells per well in triplicate in 24 well dishes and pre-incubated with mouse IgG2aκ (BD Pharmingen 555571) or mouse anti-CXCR4 (BD Pharmingen 555971) at 1 ug/ml for 1 hour prior to CXCL12 addition. Cells were maintained in media containing appropriate antibodies for the entirety of the experiment, and cells were counted at 24 and 96 hours as above.
(§4) Proliferation Assays. Cellular proliferation was assessed after plating cells at 50,000 cell/well in triplicate in six well plates and counting cells after 24 and 96 hours of incubation as described previously (see, e.g., Begley L, et al., Genes Chromosomes Cancer. 2006 February; 45(2): 136-46; herein incorporated by reference in its entirety). To assess the effects of exogenous CXCL5 on cellular proliferation, recombinant human CXCL5 (R&D Systems, 254-X) was added at the desired concentration in 2 ml SF media (or 2 ml SF media alone for control) to each well. The cells were re-fed at 24 hours growth and counted at 24 and 96 hours growth. Cell counts were normalized to 50,000 cells at 24 hours to account for any plating discrepancies. Averages and standard deviations of cell number were calculated for each time point under each media condition. For the antibody blockade experiments, 10,000 cells per well were plated in triplicate in 24 well dishes and preincubated with mouse anti-human CXCR2 (Biosource AHR1532X) or mouse antihuman CXCR4 (BD Pharmingen 555971) at 1 ug/ml for 1 hour prior to CXCL5 addition. Cells were maintained in media containing appropriate antibodies for the entirety of the experiment and were counted at 24 and 96 hours as above.

[4] = test system: LNCaP prostate epithelial cells; experiment: Proliferation assay (cell counts), LNCaP; details: add back of exogenous chemokine, 96 hours
Method: as §2, §3, §4

[5] = test system: N1 prostate fibroblast cells; experiment: Proliferation assay, add back, N1 fibroblasts; details: add back of exogenous chemokine, 96 hours
Description: FIG. 6C describes how CXCL1, CXCL5, CXCL6, and CXCL12 stimulate N15C6 prostate epithelial cell proliferation, N1 prostate fibroblast cell proliferation, and LNCaP prostate epithelial cell proliferation compared to serum-free (SF HIE) media alone. “Add back” assays were next performed to determine whether the addition of exogenous CXCL1, CXCL5, CXCL6, and CXCL12 to defined, serum-free media induced […] or LNCaP prostate epithelial or N1 fibroblast cell proliferation. For these and all experiments utilizing N15C6 and LNCaP cells, the N15C6 and N1 cells were used between passage 35-45, and LNCaP cells between passages 25-35, for consistency. All recombinant CXC proteins were obtained from R&D systems (e.g., CXCL1, #275-GR, CXCL5, #254-X; CXCL6, #333-GC, and SDF1 alpha/CXCL12, #350-NS). Cells were plated at 50,000 cells/well in triplicate, treated for 96 hours, and counted. […] Moreover, the concentrations for CXCL1, CXCL5, CXCL6 and CXCL12 observed to be growth-stimulatory for prostate epithelial cells were similar to those secreted into the media by older prostate stromal fibroblasts (see, e.g., FIGS. 6A and 6B).

[6] = test system: ERK ½; experiment: Western blot, ERK phosphorylation in LNCaP cells; details: 100 ng/ml EGF or 50 μM CXCL12 (FIG. 19C)
Method: Western Blot Analysis. Cells were lysed, proteins resolved by electrophoresis, and electroblotting was carried out as described previously (see, e.g.; Chaib H, et al., 2001 Cancer Res. 61, 2390-2394; incorporated herein by reference in its entirety). Proteins were detected using antibodies against phospho-ERK½ (Cell Signaling #9101), total ERK½ (Cell Signaling #9102), CXCR4 (Abcam #ab2074), Elk-1 (Cell Signaling #9182), Phospho Elk-1 (Cell Signaling #9181), or beta-actin (Santa Cruz #sc-1615), in conjunction with an ECL detection system.
Western Blot and Protein Analysis. Cells were lysed, proteins resolved by electrophoresis, and electroblotting was carried out as described previously except that 20 ug protein was electrophoresed per gel lane for N15C6 cells and 100 ug protein for LNCaP cells (see, e.g., Begley L, et al., Aging Cell. 2005 December; 4(6):291-8; Begley L A, et al., J Biol. Chem. 2007 Sep. 14; 282(37):26767-74; each herein incorporated by reference in their entireties). Proteins were detected using antibodies against phospho-ERK½ (Cell Signaling #9101), total ERK½ (Cell Signaling, #9102), phospho-p65, (Rockland #100-401-264), total p65 (Rockland #100-4165), STAT3 (9139), phospho-STAT3 (9138), beta-actin (Santa Cruz #sc-1615), or tubulin (Upstate, #DM1A) in conjunction with an ECL detection system. Secondary antibodies included goat anti-rabbit (Cell Signaling, #7074) and goat anti-mouse (Santa Cruz, #SC-2005), and both were used at a 1:5000 concentration. Immunoblots shown are representative of triplicate experiments. Densitometric quantitation of immunoblot films was accomplished by scanning the original films and converting the .tiff files to grayscale. Images were inverted, and mean band intensities were measured using ImageJ (www, followed by, .nih.gov). The mean intensity of adjacent background was also measured for each band and subtracted from band intensity.

Molecule	effect on migratory/invasive response of CXCL5 (contemplated) [1]	effect on migratory/invasive response of CXCL5 (contemplated) [2]	cell proliferation compared to serum-free (SF HIE) media alone [3]	cell proliferation compared to serum-free (SF HIE) media alone [4]	cell proliferation compared to serum-free (SF HIE) media alone [5]	ERK phosphorylation (pERK) [6]
O=c1cc(N2CCOCC2)oc2c(-c3ccccc3)cccc12 [LY294002a]	abroagates	abroagates				
CC(C)(C)c1cc(C=C(C#N)C#N)cc(C(C)(C)C)c1O [tyrphostin A9]	abroagates	abroagates				
CXCL1: recombinant CXC protein from R&D systems, #275-GR			stimulate	stimulate	stimulate	
CXCL6: recombinant CXC protein from R&D systems, #333-GC			stimulate	stimulate	stimulate	
EGF: epidermal growth factor, used at 100 ng/ml						minimal
